Measured values reported in patent US20260256792A1, “TREATMENT OF CHRONIC SPONTANEOUS URTICARIA BY ADMINISTERING (R)-2-[3-[4-AMINO-3-(2-FLUORO-4-PHENOXY-PHENYL)PYRAZOLO[3,4-D]PYRIMIDIN-1-YL]PIPERIDINE-1-CARBONYL]-4-METHYL-4-[4-(OXETAN-3-YL)PIPERAZIN-1-YL]PENT-2-ENENITRILE” (priority 2023, published 2026).

Test system: moderate-to-severe chronic spontaneous urticaria (CSU)
Assay: Phase 2 CSU study: itch severity score over 7 days (ISS7)
Format: in vivo, human
Settings: for Change from Baseline in ISS7 at Week 12, LS Mean Diff vs. placebo / Change from Baseline in ISS7 at Week 12, Mean / Change from Baseline in ISS7 at Week 12, LS Mean: Omalizumab-naïve population; for ISS7 change from baseline at Week 12, LS Mean / ISS7 change from baseline at Week 12, LS Mean Diff vs. placebo: ANCOVA
Text: The study comprises a 12 week, randomized, double-blind, placebo-controlled, multi-center, dose-ranging efficacy and safety phase, followed by a 40 week open label extension (OLE) phase (see FIG. 1). The study consists of three phases and an optional OLE phase. […] Clinically, CSU is characterized by the spontaneous and recurrent appearance of pruritic hives. The proposed primary endpoints were the UAS7 at Week 12 in EU and EU reference countries and the ISS7 in the US. Regardless of where a participant was from, all assessments were the same. The UAS7 score is a composite score containing both the HSS7 and the ISS7. This allowed a global assessment of the two key components of urticaria: hives and itch. […] The UAS is a validated PRO measure. […] The daily UAS scores range from 0 to 6 point/day. […] Patients were to complete the UAS using the e-diary. […] The following secondary endpoints were to be analyzed using the same approach as for the primary endpoint: • Change from baseline in UAS7 at Week 4 • Change from baseline in UAS7 at Week 12 (for US and US reference countries) • Change from baseline in ISS7 at Week 12 (except US and US reference countries) • Change from baseline in HSS7 at Week 12

[1] = 400 mg BID, Race All the Others
[2] = 400 mg BID, Region Eastern Europe
[3] = 400 mg BID, Region Latin America
[4] = 400 mg BID, Region Western Countries
[5] = 400 mg BID, omalizumab-naïve population
[6] = 400 mg BID, omalizumab-naïve population with outlier removed
[7] = 400 mg QPM, Age group (years) <44 (Median)
[8] = 400 mg QPM, Age group (years) <65
[9] = 400 mg QPM, Age group (years) ≥44 (Median)
[10] = 400 mg QPM, Baseline BHRA BHRA+
[11] = 400 mg QPM, Baseline BHRA BHRA−
[12] = 400 mg QPM, Baseline Eosinophils (10^9/L) <0.165 (Median)
[13] = 400 mg QPM, Baseline Eosinophils (10^9/L) <0.3
[14] = 400 mg QPM, Baseline Eosinophils (10^9/L) ≥0.165 (Median)
[15] = 400 mg QPM, Baseline Eosinophils (10^9/L) ≥0.3
[16] = 400 mg QPM, Baseline H1-antihistamines dose 1-fold
[17] = 400 mg QPM, Baseline H1-antihistamines dose 2 to 4-fold standard dose
[18] = 400 mg QPM, Baseline ISS7 score <13
[19] = 400 mg QPM, Baseline ISS7 score ≥13
[20] = 400 mg QPM, Baseline Total IgE (IU/mL) <100
[21] = 400 mg QPM, Baseline Total IgE (IU/mL) <300
[22] = 400 mg QPM, Baseline Total IgE (IU/mL) ≥100
[23] = 400 mg QPM, Baseline Total IgE (IU/mL) ≥300
[24] = 400 mg QPM, Baseline UAS7 score <28
[25] = 400 mg QPM, Baseline UAS7 score ≥28
[26] = 400 mg QPM, Duration of disease (years) 2-10

CC(C)(C=C(C#N)C(=O)N1CCC[C@@H](n2nc(-c3ccc(Oc4ccccc4)cc3F)c3c(N)ncnc32)C1)N1CCN(C2COC2)CC1 [rilzabrutinib, (R)-2-[3-[4-amino-3-(2-fluoro-4-phenoxy-phenyl)pyrazolo[3,4-d]pyrimidin-1-yl]piperidine-1-carbonyl]-4-methyl-4-[4-(oxetan-3-yl)piperazin-1-yl]pent-2-enenitrile]
Change from Baseline in ISS7 at Week 12, LS Mean Diff vs. placebo [1]: −3.52 | Change from Baseline in ISS7 at Week 12, Mean [1]: −6.86 | Change from Baseline in ISS7 at Week 12, LS Mean (400 mg BID, Race White): −7.91 | Change from Baseline in ISS7 at Week 12, LS Mean Diff vs. placebo (400 mg BID, Race White): −1.90 | Change from Baseline in ISS7 at Week 12, Mean (400 mg BID, Race White): −7.64 | Change from Baseline in ISS7 at Week 12, LS Mean (400 mg BID, Region Asia): −6.99 | Change from Baseline in ISS7 at Week 12, LS Mean Diff vs. placebo (400 mg BID, Region Asia): −3.54 | Change from Baseline in ISS7 at Week 12, Mean (400 mg BID, Region Asia): −6.86 | Change from Baseline in ISS7 at Week 12, LS Mean [2]: −4.38 | Change from Baseline in ISS7 at Week 12, LS Mean Diff vs. placebo [2]: 8.28 | Change from Baseline in ISS7 at Week 12, Mean [2]: −10.81 | Change from Baseline in ISS7 at Week 12, LS Mean [3]: −4.75 | Change from Baseline in ISS7 at Week 12, LS Mean Diff vs. placebo [3]: 1.84 | Change from Baseline in ISS7 at Week 12, Mean [3]: −4.42 | Change from Baseline in ISS7 at Week 12, LS Mean [4]: −10.12 | Change from Baseline in ISS7 at Week 12, LS Mean Diff vs. placebo [4]: −5.57 | Change from Baseline in ISS7 at Week 12, Mean [4]: 9.95 | ISS7 at Week 12, Mean [5]: 8.09 | ISS7 at Week 12, Median [5]: 7.00 | ISS7 change from baseline at Week 12, Mean [5]: −7.40 | ISS7 change from baseline at Week 12, Median [5]: −7.00 | LS mean reduction in ISS7 (see Table 30) [5]: −5.06 | ISS7 at Week 12, Mean [6]: 8.09 | ISS7 at Week 12, Median [6]: 7.00 | ISS7 change from baseline at Week 12, Mean [6]: −7.40 | ISS7 change from baseline at Week 12, Median [6]: −7.00 | ISS7 change from baseline at Week 12, LS Mean [6]: −7.76 points | ISS7 change from baseline at Week 12, LS Mean Diff vs. placebo [6]: −2.05 | ISS7 change from baseline at Week 12, LS Mean [5]: −7.73 points | ISS7 change from baseline at Week 12, LS Mean Diff vs. placebo [5]: −1.96 | Change from Baseline in ISS7 at Week 12, LS Mean [7]: −4.68 | Change from Baseline in ISS7 at Week 12, LS Mean Diff vs. placebo [7]: −0.21 | Change from Baseline in ISS7 at Week 12, Mean [7]: −5.45 | Change from Baseline in ISS7 at Week 12, LS Mean [8]: −4.78 | Change from Baseline in ISS7 at Week 12, LS Mean Diff vs. placebo [8]: 0.88 | Change from Baseline in ISS7 at Week 12, Mean [8]: −5.68 | Change from Baseline in ISS7 at Week 12, LS Mean [9]: −4.77 | Change from Baseline in ISS7 at Week 12, LS Mean Diff vs. placebo [9]: 1.83 | Change from Baseline in ISS7 at Week 12, Mean [9]: −5.95 | Change from Baseline in ISS7 at Week 12, Mean (400 mg QPM, Age group (years) ≥65): −5.83 | Change from Baseline in ISS7 at Week 12, LS Mean [10]: −8.50 | Change from Baseline in ISS7 at Week 12, LS Mean Diff vs. placebo [10]: −3.12 | Change from Baseline in ISS7 at Week 12, Mean [10]: −9.13 | Change from Baseline in ISS7 at Week 12, LS Mean [11]: −4.66 | Change from Baseline in ISS7 at Week 12, Mean [11]: −5.45 | Change from Baseline in ISS7 at Week 12, LS Mean Diff vs. placebo (400 mg QPM, Baseline BMI (kg/m^2) ≥30): 0.17 | Change from Baseline in ISS7 at Week 12, LS Mean [12]: −4.00 | Change from Baseline in ISS7 at Week 12, LS Mean Diff vs. placebo [12]: 2.51 | Change from Baseline in ISS7 at Week 12, Mean [12]: −4.93 | Change from Baseline in ISS7 at Week 12, LS Mean [13]: −4.64 | Change from Baseline in ISS7 at Week 12, LS Mean Diff vs. placebo [13]: 0.83 | Change from Baseline in ISS7 at Week 12, Mean [13]: −5.66 | Change from Baseline in ISS7 at Week 12, LS Mean [14]: −5.54 | Change from Baseline in ISS7 at Week 12, LS Mean Diff vs. placebo [14]: −1.46 | Change from Baseline in ISS7 at Week 12, Mean [14]: 6.55 | Change from Baseline in ISS7 at Week 12, LS Mean [15]: −5.53 | Change from Baseline in ISS7 at Week 12, LS Mean Diff vs. placebo [15]: −0.68 | Change from Baseline in ISS7 at Week 12, Mean [15]: −5.81 | Change from Baseline in ISS7 at Week 12, LS Mean [16]: −4.24 | Change from Baseline in ISS7 at Week 12, LS Mean Diff vs. placebo [16]: 2.59 | Change from Baseline in ISS7 at Week 12, Mean [16]: −5.09 | Change from Baseline in ISS7 at Week 12, LS Mean [17]: −5.28 | Change from Baseline in ISS7 at Week 12, LS Mean Diff vs. placebo [17]: −1.80 | Change from Baseline in ISS7 at Week 12, Mean [17]: −6.37 | Change from Baseline in ISS7 at Week 12, LS Mean [18]: −1.87 | Change from Baseline in ISS7 at Week 12, LS Mean Diff vs. placebo [18]: 0.85 | Change from Baseline in ISS7 at Week 12, Mean [18]: −4.42 | Change from Baseline in ISS7 at Week 12, LS Mean [19]: −5.38 | Change from Baseline in ISS7 at Week 12, LS Mean Diff vs. placebo [19]: 0.36 | Change from Baseline in ISS7 at Week 12, Mean [19]: −5.78 | Change from Baseline in ISS7 at Week 12, LS Mean [20]: −3.37 | Change from Baseline in ISS7 at Week 12, LS Mean Diff vs. placebo [20]: 0.87 | Change from Baseline in ISS7 at Week 12, Mean [20]: −4.48 | Change from Baseline in ISS7 at Week 12, LS Mean [21]: −4.46 | Change from Baseline in ISS7 at Week 12, LS Mean Diff vs. placebo [21]: 0.05 | Change from Baseline in ISS7 at Week 12, Mean [21]: −5.41 | Change from Baseline in ISS7 at Week 12, LS Mean [22]: −5.51 | Change from Baseline in ISS7 at Week 12, LS Mean Diff vs. placebo [22]: 0.52 | Change from Baseline in ISS7 at Week 12, Mean [22]: −6.28 | Change from Baseline in ISS7 at Week 12, LS Mean [23]: −4.90 | Change from Baseline in ISS7 at Week 12, LS Mean Diff vs. placebo [23]: 1.64 | Change from Baseline in ISS7 at Week 12, Mean [23]: −6.11 | Change from Baseline in ISS7 at Week 12, LS Mean [24]: −3.33 | Change from Baseline in ISS7 at Week 12, LS Mean Diff vs. placebo [24]: −0.15 | Change from Baseline in ISS7 at Week 12, Mean [24]: −5.32 | Change from Baseline in ISS7 at Week 12, LS Mean [25]: −5.59 | Change from Baseline in ISS7 at Week 12, LS Mean Diff vs. placebo [25]: 1.01 | Change from Baseline in ISS7 at Week 12, Mean [25]: −5.78 | Change from Baseline in ISS7 at Week 12, LS Mean [26]: −5.24 | Change from Baseline in ISS7 at Week 12, LS Mean Diff vs. placebo [26]: 1.79 | Change from Baseline in ISS7 at Week 12, Mean [26]: −6.43
